Data reported in US20230023009A1, “HETEROCYCLIC COMPOUNDS AND METHODS OF USE THEREOF” (SPARCBIO LLC, priority 2020, published 2023).

How the values were obtained:
NCI-H358 cells = test: 3D cell proliferation assay (Cell Titer-Glo 3D, 7 days); format: cell-based; settings: Homo sapiens, NCI-H358, 168 h, NCI-H358 3D, ultra-low attachment plate
Protocol: NCI-H358 cells (ATCC® CRL-5807™) were plated in a 384-well Black/Clear Round Bottom Ultra-Low Attachment Microplate (Corning) in medium (RPMI-1640+10% FBS) at a density of 1000 cells in 50 μL per well, then incubated overnight at 37° C. and 5% CO2. Cells were treated with test compounds at 9 concentrations within a specified concentration range (e.g., 0.5 nM-10 μM) for generation of dose response curves. Test compounds were prepared by 1:3 serial dilution in DMSO from a specified starting concentration (e.g., 20 μM, 2 μM or 0.2 μM) and then added to wells of the assay plate in a total volume of 150 nL DMSO. The cells were further incubated at 37° C. and 5% CO2 for 7 days. Cell viability was assessed by adding 40 μL of Cell Titer-Glo® 3D reagent (Cat. No.: G9683, Promega) to each well and reading luminescence after mixing and incubation of the samples. The IC50 value of each test compound was calculated with XLFit curve fitting software.

MIA PaCa-2 = test: Cell proliferation assay panel (Cell Titer-Glo, 72 hr); format: cell-based; settings: Homo sapiens, MIA PaCa-2, 72 h
Protocol: Potency of compounds was determined in cell proliferation assays in a panel of cancer cell lines. Cells were seeded in 384-well plates (Corning, Cat. #3765) at specified densities in 40 μL of culture medium and incubated overnight at 37° C. in a 5% CO2 incubator (culture conditions). With a robotic dispenser, serially diluted test compounds were added in a volume of 20 nL DMSO to wells in the culture plate to achieve the final desired concentrations of test compounds, and the cells were further incubated in culture conditions for 72 hr. The assay was terminated by addition of 25 μL of Cell Titer-Glo reagent (Promega, Madison, Wis.) to each well. Contents were mixed, the plate was incubated for 10 min at room temperature and luminescence was measured. The IC50 value of each test compound was calculated with XLFit curve fitting software. Results are shown in Table 4. ‘+++’ indicates IC50 values≤300 nM, ‘++’ indicates IC50 values between 300 nM-3 μM, and ‘+’ indicates IC50 values≥3 μM.

[1] = tested on: Phosphorylation of ERK in NCI-H358 cells; test: pERK assay (Method II, homogeneous TR-FRET); format: cell-based; settings: Homo sapiens, 4 hrs compound treatment
Protocol: Method II. Phosphorylation of ERK was assessed by a homogeneous TR-FRET assay (Advanced phospho-ERK (Thr202/Tyr204) cellular kit; Cat. #64AERPEH, Cisbio). In brief, NCI-H358 cells were seeded in a 384-well culture plate at a density of 6000 cells in 40 μL medium/well and grown overnight at 37° C. and 5% CO2. Each test compound was dosed in duplicate in a 10-dose 3-fold titration starting at 10 μM or 2 μM. The culture plate was then incubated for 4 hrs in the incubator. At the end of the compound treatment, the medium was removed, 35 μL of lysis buffer was added to each well, and the plate was agitated on a plate shaker for 40 mins at 4° C. An antibody cocktail of phospho-ERK1/2 Eu Cryptate antibody and Phospho-ERK1/2 d2 antibody was prepared by separately diluting the antibodies 20-fold with detection buffer and then mixing them together. 3.4 μL of antibody cocktail was dispensed to each well of an empty 384-well white ProxiPlus assay plate (Perkin Elmer), and the plate briefly centrifuged. 13.6 μL of cell lysate was then added to the antibody-containing wells, and the plate was briefly centrifuged and then incubated 2 hrs at room temperature. The plate was read on a fluorescence plate reader (Envision2104, Perkin Elmer), with an excitation wavelength of 337 nm and emission wavelengths of 615 nm and 665 nm. The IC50 value of each test compound was calculated with XLFit curve fitting software. Results are shown in Table 6. ‘+++’ indicates IC50 values≤300 nM, ‘++’ indicates IC50 values between 300 nM-3 μM, and ‘+’ indicates IC50 values≥3 μM.

KRAS G12C protein = KRAS G12C protein (Homo sapiens, UniProt P01116, G12C); test: Nucleotide exchange assay (Method III, KRAS G12C/Raf-RBD TR-FRET); format: biochemical; settings: SOS1-mediated exchange of GDP for GTP, 18 hr compound incubation
Protocol: Method III. Inhibition of SOS1-mediated exchange of GDP for GTP on the KRAS G12C protein was measured in a biochemical assay that monitors association of KRAS G12C protein with the Ras-binding domain of Raf (Raf-RBD), where the association is coupled to exchange of GDP to GTP on the KRAS G12C protein. The assay was performed at WuXi AppTec (Shanghai, China). Compounds were serially diluted in 3-fold dilutions to 11 concentrations and spotted into the wells of an assay plate in a total volume of 150 nL DMSO per well. A 2× enzyme mix was prepared by diluting GDP-bound, His-tagged KRAS G12C to 25 nM in assay buffer. 10 μL/well of 2× enzyme mix was added to all wells, and the plate was sealed and incubated overnight (18 hr) at 23° C. 4×SOS1/GDP and 4×SOS1/GTP were prepared in assay buffer. 5 μL/well of 4×SOS1/GDP mix was added to negative control wells, 5 μL/well of 4×SOS1/GTP mix was added to the remaining wells, and the plate was further incubated at 23° C. for 1 hr. Finally, FLAG-tagged Raf-RBD is added to the reaction mixture along with a pair of FRET donor- and acceptor-conjugated antibodies specific for the FLAG-tagged Raf-RBD and His-tagged KRAS G12C proteins. A 4×Raf-RBD/Tb-anti-FLAG/D2-anti-His mix was prepared in assay buffer, and 5 μL/well of the mix was added to all wells, followed by incubation at room temperature for 2 hr. The TR-FRET signals, which increase with association of KRAS G12C and Raf-RBD, were measured on a Perkin Elmer Envision 2104 plate reader, and data were analyzed by non-linear regression to obtain IC50 values for inhibition by compounds. Table 2 includes results of the assay of Method III. ‘+++’ indicates IC50 values≤300 nM, ‘++’ indicates IC50 values between 300 nM-3 μM, and ‘+’ indicates IC50 values≥3 μM.

Sequence of KRAS G12C protein (P01116 1-188 isoform P01116-2 G12C): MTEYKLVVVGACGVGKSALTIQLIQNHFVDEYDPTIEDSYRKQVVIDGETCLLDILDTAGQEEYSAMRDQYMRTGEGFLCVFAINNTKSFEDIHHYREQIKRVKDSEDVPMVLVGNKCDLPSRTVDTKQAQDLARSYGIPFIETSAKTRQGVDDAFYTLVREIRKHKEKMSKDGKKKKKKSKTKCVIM

Structure (SMILES)	IC50 (NCI-H358 cells) [nM]	IC50 (MIA PaCa-2) [nM]	IC50 [1] [nM]	IC50 (KRAS G12C protein) [nM]
CC#CC(=O)N1CCN(c2nc(OC[C@@H]3CCCN3C)nc3c2COC(c2cccc4cccc(Cl)c24)C3)C[C@@H]1CC#N (single isomer, unassigned) [243 (Isomer B)]	≤ 100	≤ 300	≤ 300	≤ 300
C/C=C/C(=O)N1CCN(c2nc(OC[C@@H]3CCCN3C)nc3c2COC(c2cccc4cccc(Cl)c24)C3)C[C@@H]1CC#N (single isomer, unassigned) [241 (Isomer A)]	≤ 100	300 to 3000	≤ 300	≤ 300
C=C(F)C(=O)N1CCN(c2nc(OC[C@@H]3CCCN3C)nc3c2COC(c2c(C)ccc4[nH]ncc24)C3)C[C@@H]1CC#N (single isomer, unassigned) [52 (Isomer B)]	100 to 2000	300 to 3000	300 to 3000	≤ 300
